Entries after “also recorded” stand apart in the source; their conditions may differ.
Key:
CT60 cells [1] = experiment: Filipin binding assay, average filipin intensity and staining pattern; format: cell-based, Chinese hamster; conditions: 10 μM; for Average filipin intensity Fraction of control: 14 hit compounds from primary library
Experimental: We developed assays for correction of the NPC phenotype in CHO cell lines using filipin, which binds to non-esterified cholesterol and has been used to visualize the free cholesterol content in NPC cells. The initial screens were carried out in CT60 cells, which express a mutated hamster NPC1 protein and a gain of function mutation in SCAP (42). These cells cannot traffic LDL-derived cholesterol out of late endosomes, and large amounts of cholesterol accumulate in LSO compartments. FIGS. 1A-B show images of filipin staining in a control CHO cell line, TRVb1 (45) (FIG. 1A) and in CT60 cells (FIG. 1B). It can be seen that the CT60 cells show much more filipin staining than control cells and that the fluorescence in CT60 cells is concentrated in peri-nuclear organelles.
For screening, images were acquired using a Discovery-1 automated microscopy system with a 10× objective and corrected for background and shading as described in Methods. Two thresholds were set for filipin staining, a low threshold to include all cell areas, and a high threshold for the strong filipin staining in the peri-nuclear LSOs. The threshold values were set for each plate from analysis of 64 images in 32 wells of untreated CT60 cells. […] In developing the low threshold, we compared the outlines based on the thresholded cell images with transmitted light images, and the thresholds provided good agreement with the transmitted light cell boundaries.
As a simple measure of the intensity of filipin staining, we measured the filipin intensity per pixel above the threshold. The conditions of filipin labeling (time and concentration) were adjusted to optimize the discrimination between the CT60 cells and control TRVb1 cells. […] The quality of the assay for screening is expressed in terms of a statistical parameter Z′(46):
Using the above screening technique, we screened a library of 14,956 compounds added to cells for 16 hours at a final concentration of 10 μM, using a single well for each compound. Prior to application of the compounds, cells were grown in normal tissue culture medium containing 10% FBS, so the LSOs were filled with cholesterol (FIG. 1B). The cells were then imaged and analyzed using the average filipin intensity assay and the LSO compartment assay. In general, the two analyses identified similar compounds that reduced the filipin labeling.
Compound addition: The library compounds were formatted for screening in the Rockefeller University High Throughput Screening Facility. Cells were treated with the compounds from the chemical library one day after plating. We added […] of each compound (5 mM stock in DMSO) to 25 μl of screening Medium S composed of medium A supplemented with 1% FBS and 20 mM 4-(2-hydroxyethyl)-1-pipiperazine ethane sulphonic acid (HEPES) in Falcon 384-well V-bottomed polypropylene plates using a Packard MiniTrak™ robotic liquid handling system. To obtain ˜10 μM final concentration, 23 μl of the premixed compounds were dispensed into the plates containing cells and […] of culture medium A. For primary screening, 352 test compounds were added to each plate, and the remaining 32 wells were used as a control with only DMSO added. All plates were incubated with compounds for 16 h at 37° C. Plates were then washed three times with phosphate buffered saline pH 7.4 (PBS) using a Bio-Tek Elx405 plate washer (Bio-Tek Instruments Inc., Winooski, Vt.). For each wash cycle, […] of PBS was dispensed followed by aspiration with a residual volume of 16 μl per well. Finally, cells were fixed with 1.5% PFA in PBS for 20 min at room temperature, followed by 3 more washes with PBS.
Fluorescence labeling. To the fixed cells, filipin was added at a final concentration of 50 μg/ml in PBS for 45 m at room temperature to label free cholesterol. Cells were finally washed three times with PBS, and images were acquired immediately after labeling. […]

CT60 cells [2] = experiment: Gas chromatography cholesterol assay; format: cell-based, Chinese hamster; conditions: 10 μM, FC = free cholesterol
Experimental: The cholesterol lowering effect of the 14 hit compounds identified by filipin labeling was measured by an alternative chemical method that involved GC separation of solvent-extracted cellular lipids (43). CT60 cells were treated with compounds at 10 μM under the same conditions as in the screening assays. Since the GC assay estimates FC content per cell, the values are compared to the average filipin intensity assay (Table 1).
CT60 or CT43 cells were plated on day 1 in 6-well plates. Hit compounds were added to the cells at 10 μM concentration. Cells were incubated for 24 h. Cellular lipids were extracted with hexane: iso-propyl alcohol (3:2 v/v). The lipid extracts were dried and re-suspended in hexane followed by separation on gas chromatograph using β-sitosterol as an internal standard.
Procedure: CT60 cells were plated in 6-well plates in Ham's F-12/1.176 g/L sodium bicarbonate/2 g/L glucose/10% FBS. Following 24 h incubation, cells were treated with 10 μM of each compounds, medium being replaced with Ham's F-12/1.176 g/L sodium bicarbonate/2 g/L glucose/5.5% FBS/20 mM HEPES. The change of the medium in the wells was performed to have experimental conditions similar to those used for the screening once chemical compounds were added to the cells. After 18 h treatment with compounds, cells were washed twice with Hank's balanced salt solutions (HBSS). Cellular lipids were extracted with hexane/isopropyl alcohol (3:2 v/v) (43) dried and resuspended in hexane followed by separation on a gas chromatograph (GC) using following conditions. A Hewlett Packard GC model HP 5890 series II (Palo Alto, Calif.) equipped with a flame ionization detector, split-splitless injector, and 15 m×0.53 mm HP-5 capillary column coated with […] film thickness of 5% phenyl methyl siloxane was used to separate free cholesterol. The injection temperature was maintained at 255° C. and oven temperature was held isothermally at 260° C. using helium as a mobile phase at 30 mL/min flow rate. The free cholesterol (FC) was quantified using beta-sitosterol as internal standard to correct for lipid losses during extraction.

normal human fibroblasts [3] = experiment: Filipin staining of normal human fibroblasts; format: cell-based; conditions: data not shown
Experimental: These cells show rearrangements that may indicate that cholesterol has been redirected to a different compartment or that the morphology of the LSOs themselves has been changed (compound 1-c-3, FIG. 4C).
(§1) Normal human fibroblasts (GM5659E) were grown in MEM with 1% P/S and 10% FBS. For microscopy, fibroblasts were plated in normal growth medium on glass-bottomed 35 mm dishes or in 384-well plates.

normal human fibroblasts [4] = experiment: Filipin LSO ratio assay on U18666A-treated normal human fibroblasts; format: cell-based; conditions: 250 nM or 500 nM, 20 hours
Experimental: FIG. 12 depicts the effect of 7 compounds (2-a-1, 2-a-3, 2-a-8, 2-a-9, 2-a-12, 2-a-13, 2-a-15) from the second library on U18666A-treated normal human fibroblasts. Normal human fibroblasts were plated in 384 well plates and grown in regular growth medium for 24 h, after which the cells were treated with compound U18666A (500 nM or 250 nM) in screening medium for 4 h. The cells were then further incubated overnight with hit compounds (10 μM) in the continued presence of U18666A. Finally, cells were washed three times with PBS, fixed with 1.5% PFA, washed with PBS and stained with filipin. Images were acquired using the Discovery1 microscope at 10× magnification and analyzed for the LSO ratio. Solid horizontal lines are the mean for U18666A-treated cells at each concentration, and the dotted horizontal lines indicate −3 SD.
as §1
Normalized values were obtained by dividing the values in the presence of each compound by the values obtained in presence of solvent control for each plate. Similar methods were used to analyze the effects of compounds on human fibroblasts treated with U18666A to induce cholesterol retention in LSOs. […]

SMILES | Average filipin intensity Fraction of control (CT60 cells [1]) | μg FC/μg Protein by GC Fraction of control (CT60 cells [2]) | further results
O=C1C(=Cc2ccc(-c3cc(Cl)ccc3Cl)o2)C=C(c2ccccc2)N1c1ccc(O)cc1 [Compound 1-a-7] | 0.89 ± 0.04 Fraction of control | 1.04 ± 0.13 Fraction of control | 
Cc1cc([N+](=O)[O-])ccc1NC(=O)CC1SC(=Nc2ccccc2)N(c2ccccc2)C1=O (stereo not shown) [Compound 1-a-10] | 0.96 ± 0.04 Fraction of control | 1.23 ± 0.08 Fraction of control | 
Clc1ccccc1N1N=C(C=Cc2cccs2)CC1c1cccs1 (stereo not shown) [Compound 1-b-2] |  |  | change in filipin intensity (CT60 cells [1]): increase in filipin intensity; also recorded: increased filipin intensity
O=C1C(=Cc2ccc(-c3ccc(Cl)c(Cl)c3)o2)C=C(c2ccccc2)N1c1ccccc1O [Compound 1-a-6] | 0.92 ± 0.04 Fraction of control | 1.37 ± 0.01 Fraction of control | 
Nc1c(Sc2ccccc2)cc(Sc2ccccc2)c2c1C(=O)c1ccccc1C2=O [Compound 1-a-1] | 0.87 ± 0.04 Fraction of control | 1.02 ± 0.03 Fraction of control | 
C=CCN1C(=O)C(=CC=Cc2ccc(N(C)C)cc2)SC1=S [Compound 1-a-2] | 0.88 ± 0.04 Fraction of control | 1.15 ± 0.05 Fraction of control | 
O=C1C(=Cc2ccc(-c3ccc(Br)cc3)o2)C=C(c2ccccc2)N1c1ccc(O)cc1 [Compound 1-a-8] | 0.90 ± 0.04 Fraction of control | 1.31 ± 0.10 Fraction of control | 
O=C1Nc2ccccc2C1=NNc1nc(N2CCCCC2)nc(N2CCCCC2)n1 [Compound 1-a-9] | 0.99 ± 0.04 Fraction of control | 0.86 ± 0.07 Fraction of control | 
CC(C)(C)c1ccc(C(=O)Nc2ccc(-c3nc4ccccc4o3)c(O)c2)cc1 [Compound 1-b-4] |  |  | change in filipin intensity (CT60 cells [1]): significant increase; also recorded: increased filipin-intensity; also recorded: increased filipin intensity; morphological change of the filipin staining pattern (CT60 cells [1]): filamentous or tubular staining; also recorded: induced morphological changes; also recorded: bright swirls of filipin staining; effect on filipin staining compared with CT60 cells (normal human fibroblasts [3]): similar
CCN(CC)C(=O)CCN1C(=O)C(=Cc2ccc(F)cc2)SC1=S [Compound 1-c-2] |  |  | change in filipin intensity (CT60 cells [1]): no significant change; morphological change of the filipin staining pattern (CT60 cells [1]): more compact LSOs; also recorded: morphological changes
CCN(CC)CCO[C@H]1CC[C@@]2(C)C(=CC[C@@H]3[C@@H]2CC[C@]2(C)C(=O)CC[C@@H]32)C1 [Compound U18666A] |  |  | cholesterol accumulation by filipin staining and LSO compartment ratio (normal human fibroblasts [4]): significant increase
CCOc1ccc(NN=C2C(=O)N(c3nc(-c4ccccc4)cs3)N=C2c2ccccc2)cc1 [Compound 1-a-3] | 0.95 ± 0.04 Fraction of control | 1.27 ± 0.07 Fraction of control | 
COc1ccccc1NN=C1C(=O)N(c2nc(-c3ccc(Cl)cc3)cs2)N=C1C [Compound 1-a-4] | 1.01 ± 0.04 Fraction of control | 0.87 ± 0.07 Fraction of control | 
CN(C)c1cc(NN=Cc2cccs2)nc(N(C)C)n1 [Compound 1-a-12] | 0.91 ± 0.04 Fraction of control | 0.73 ± 0.03 Fraction of control | 
O=C1C(=Cc2ccc(-c3ccc(Cl)c(Cl)c3)o2)C=C(c2ccccc2)N1c1ccc(O)cc1 [Compound 1-a-5] | 0.89 ± 0.04 Fraction of control | 1.18 ± 0.06 Fraction of control | 
O=C(O)c1ccc(N2C(=O)C(=Cc3ccc(-c4ccc(Br)cc4)o3)C=C2c2ccccc2)cc1 [Compound 1-a-13] | 0.97 ± 0.04 Fraction of control | 1.54 ± 0.11 Fraction of control | 
CCOC(=O)c1sc(NC(=O)c2ccccc2C)nc1-c1ccccc1 [Compound 1-a-11] | 0.90 ± 0.04 Fraction of control | 0.82 ± 0.07 Fraction of control | 
CC1=NN(c2ccccc2)C(=O)C1=NNc1ccccc1C(=O)O [Compound 1-c-3] |  |  | morphological change of the filipin staining pattern (CT60 cells [1]): peri-nuclear clusters of LSOs in mutant cells to become more dispersed; also recorded: morphological changes; also recorded: large network of apparently tubular organelles
